“Also recorded” adds a separate entry of the source.
How the values were obtained:
[1] = target: T1, 2-5A-dependent RNase (Homo sapiens, UniProt Q05823); test: Divalent cation and ATP effects on 2-5A-dependent RNase activity of dialyzed enzyme; format: biochemical; conditions: EDTA/EGTA buffer
T1 sequence (Q05823 1-741): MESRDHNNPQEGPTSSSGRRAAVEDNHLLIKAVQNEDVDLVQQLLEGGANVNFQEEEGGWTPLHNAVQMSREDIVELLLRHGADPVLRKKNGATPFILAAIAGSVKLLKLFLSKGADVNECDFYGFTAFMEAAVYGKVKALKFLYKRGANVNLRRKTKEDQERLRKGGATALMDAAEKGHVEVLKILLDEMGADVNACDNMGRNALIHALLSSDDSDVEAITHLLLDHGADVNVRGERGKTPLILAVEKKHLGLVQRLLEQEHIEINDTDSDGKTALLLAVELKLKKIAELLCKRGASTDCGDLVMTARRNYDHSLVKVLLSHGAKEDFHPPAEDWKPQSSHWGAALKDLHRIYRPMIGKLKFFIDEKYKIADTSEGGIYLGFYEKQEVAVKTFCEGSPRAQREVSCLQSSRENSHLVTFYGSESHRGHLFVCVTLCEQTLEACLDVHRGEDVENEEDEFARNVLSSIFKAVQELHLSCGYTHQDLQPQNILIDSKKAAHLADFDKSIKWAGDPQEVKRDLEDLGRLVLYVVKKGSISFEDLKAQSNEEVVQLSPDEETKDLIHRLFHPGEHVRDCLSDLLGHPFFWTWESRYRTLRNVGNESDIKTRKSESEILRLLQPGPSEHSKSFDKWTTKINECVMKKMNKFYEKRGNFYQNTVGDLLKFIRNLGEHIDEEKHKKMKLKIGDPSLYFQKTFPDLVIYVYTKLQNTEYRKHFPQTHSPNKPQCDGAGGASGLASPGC
Procedure: (§1) The divalent cation requirements of 2-5A-dependent RNase were determined after extensive dialysis against buffer containing both EDTA and EGTA. More particularly, purified 2-5A-dependent RNase (about 100 μg in 100 μl), post-mono Q column fraction, was dialyzed at 4° C. against 25 mM Tris-HCl (pH 7.4), 2.5 mM EDTA, 2.5 mM EGTA, 14 mM 2-mercaptoethanol, and 100 mM KCl (first against 400 ml for four hours, then against 600 ml for ten hours, and finally against 200 ml of reaction buffer (EDTA and EGTA were reduced to 0.5 mM) for another four hours.
(§2) Activity assays were also performed in the presence of EDTA/EGTA to ensure the chelation of metal ions present in the reagents. […] For the filter binding assay, a ^32 P-labeled and bromine substituted 2-5A analog, p(A2'p)2 (br^8 A2'p)2 A3'-32P]Cp, 10,000 counts per minute per assay, at about 3,000 Ci per mmole, was incubated with fractions containing 2-5A-dependent RNase (or controls) at 4° C. for one hour.

[2] = target: T1, 2-5A-dependent RNase; test: Divalent cation and ATP effects on 2-5A binding activity of dialyzed enzyme; conditions: EDTA/EGTA buffer
Procedure: as §1, §2

[3] = system: murine 2-5A-dependent RNase; test: UV covalent crosslinking of 32P-2-5A probe in presence of unlabeled oligonucleotide competitors; format: binding; conditions: for competition with binding of the 2-5A probe: competitor 100 nM, recombinant 74 kDa protein (clone ZB1) in wheat germ extract, similar profile for L929 cell enzyme; for concentration of competitor that prevents 2-5A probe binding: probe 2.4 nM, both truncated recombinant (ZB1) and naturally occurring L cell protein
Procedure: FIG. 2A is a specific affinity of truncated murine 2-5A-dependent RNase for 2-5A. UV covalent crosslinking of the ^32 P-2-5A probe (lanes 1-7) to protein is performed after translation reactions in wheat germ extract (5 μl) with murine 2-5A-dependent RNase mRNA (from clone ZB1) (lanes 1-3) or without added RNA (lane 4) or in extract of interferon treated mouse L cells (100 μg of protein) (lanes 5-7). Reactions are without added competitor (lanes 1, 4, and 5) or in the presence of either trimer core. […] Lanes 8 and 9 are produced by incubating the wheat germ extract with ^35 S-methionine in the absence or presence of 2-5A-dependent RNase mRNA, respectively.
Autoradiograms of the dried SDS/10% polyacrylamide gels are shown. Concentrations of the oligonucleotide competitors are indicated. I is inosine.
The synthesis of the 2-5A probe, p(A2'p)2 (br^8 A2'p)2 A[32P]Cp, and its crosslinking to 2-5A-dependent RNase is performed exactly as described. See Nolan-Sorden, N. L. et al., Anal. Biochem., 184:298-304 (1990). Briefly, the 2-5A probe, about 0.7 to 2.5 nM at […], is incubated for about one hour on ice with cell extract prepared as described, Silverman, R. H. and Krause, D., I.R.L. Press, Oxford. England, pp. 149-193 (1987), in the absence or presence of unlabeled oligonucleotide competitors. Covalent crosslinking is done under a uv lamp (308 nm) for one hour on ice and the proteins are separated on SDS/10% polyacrylamide gels. Filter assays for 2-5A binding activity using the 2-5A probe for about one hour on ice, as described in Knight, M. et al., Nature, 288:189-192 (1980).

[4] = system: human 2-5A-dependent RNase; test: UV covalent crosslinking of 2-5A probe in presence of competitors; format: binding; conditions: competitor 100 nM; recombinant human enzyme in wheat germ extract; same pattern in HeLa cell extract
Procedure: FIG. 5A is specific affinity of recombinant human 2-5A-dependent RNase for 2-5A. Crosslinking of the 2-5A probe (lanes 1-7) to protein is performed after translation reactions in wheat germ extract (5 μl) with human 2-5A-dependent RNase mRNA (lanes 1-3) or without added RNA (lane 4) or in extract of human interferon α treated (1000 units per ml for 16 h) human HeLa cells (350 μg of protein) (lanes 5-7). […] Incubations with ^35 S-methionine are shown in lanes 8 to 12. Lane 8 is with wheat germ extract and human 2-5A-dependent RNase mRNA. Reticulocyte lysate preadsorbed to 2-5A-cellulose is incubated with human 2-5A-dependent RNase mRNA in the absence (lane 9) or presence (lane 10) of cycloheximide, or in the absence of added mRNA (lane 11). […] The positions and relative molecular masses (in kDa) of the marker proteins are indicated.
The synthesis of the 2-5A probe, p(A2'p)2 (br^8 A2'p)2 A[32P]Cp, and its crosslinking to 2-5A-dependent RNase is performed exactly as described. See Nolan-Sorden, N. L. et al., Anal. Biochem., 184:298-304 (1990). Briefly, the 2-5A probe, about 0.7 to 2.5 nM at […], is incubated for about one hour on ice with cell extract prepared as described, Silverman, R. H. and Krause, D., I.R.L. Press, Oxford. England, pp. 149-193 (1987), in the absence or presence of unlabeled oligonucleotide competitors. […]

[5] = system: human 2-5A-dependent RNase; conditions: purified enzyme, poly(rU) substrate; for concentration giving maximal activation of 2-5A-dependent RNase: 30 minutes 30° C.
Procedure: Assays were with 50 ng of superose 12 purified fractions of the 2-5A-dependent RNase at 30° C. for 30 minutes using 12 nM poly(rU)-^32 P[Cp] as substrate.
To determine the structural requirement of 2-5A required for activation of 2-5A-dependent RNase, ribonuclease activity against poly(rU) was determined as a function of oligonucleotide concentration. The purified 2-5A-dependent RNase was used in these assays.
(§3) RNA and DNA molecules used were poly(rU), poly(A), poly(G), poly(C), or poly(dT) from Pharmacia and were labeled at their 3'-termini with ^32 P-pCp (3,000 Ci per mmole) and T4 RNA ligase as described previously (Silverman, R. H., Anal. Biochem. 144, 450-460 1985). Fractions containing 2-5A-dependent RNase were incubated in the presence or absence of 100 nM of p3 (A2'p)3 A (or other oligonucleotides), 8 to 16 nM of ^32 P-labeled RNA in final volumes of 25 μls at 30° C. The trichloracetic acid-insoluble fraction of RNA was then determined by filtering on glass-fiber filters in the presence of carrier yeast tRNA as described previously (Silverman, R. H., Anal. Biochem. 144, 450-460 1985).

[6] = system: human recombinant 2-5A-dependent RNase; test: 2-5A-dependent ribonuclease assay, crude extract of recombinant baculovirus-infected insect cells, poly(rU) degradation; conditions: activator at 100 nM, thirty minutes
Procedure: Crude cell extracts, containing 2 μg of protein, were incubated with 12 nM poly(rU)-^32 p[Cp] for 30 minutes at 30° C. in the presence of absence of 100 nM of tetramer 2-5A. RNA degradation was determined by measuring acid-insoluble fraction of RNA as described (Silverman, R. H. Anal. Biochem., 144:450-460 1985).
To measure the catalytic activity of the recombinant enzyme, ribonuclease assay was performed in the presence and absence of trimer 2-5A, p3 (A2'p)2 A. The degradation of radiolabeled poly(rU) to acid-soluble fragments was measured in this assay (Silverman, R. H., Anal. Biochem. 144,450-460 1985).
as §3

[7] = system: 2-5A probe; test: 2-5A binding activity of nested 3'-deletion clones (filter binding and uv crosslinking); conditions: protein expressed in wheat germ extract
Excerpt: See Example and Knight et al. (1980). The positions of the P-loop motifs and the lengths of the translation products are indicated. Clone ZB1 encodes for amino acids designated as 1-656 in Table II, except for the last 5 amino acid residues which are Lys, Pro, Leu, Ser, and Gly. Clone ZB2 encodes for amino acids designated as 1-619 in Table II. Clone ZB3 encodes for amino acids designated as 1-515 in Table II. Clone ZB5 encodes for amino acids designated as 1-474 in Table II. Clone ZB9 encodes for amino acids designated as 1-403 in Table II. Clone ZB10 encodes for amino acids designated as 1-365 in Table II. Clone ZB13 encodes for amino acids designated as 1-294 in Table II. Clone ZB14 encodes for amino acids designated as 1-265 in Table II. Clone ZB15 encodes for amino acids designated as 1-218 in Table II.
To further define sequences involved in 2-5A binding, nested 3'-deletions of the murine 2-5A-dependent RNase cDNA, clone ZB1, are constructed, transcribed in vitro, and expressed in a wheat germ extract. […] The levels of 2-5A binding activity are determined with the 2-5A probe in both a filter binding assay, Knight, M. et al., Nature, 288:189-192 (1980), and the uv crosslinking assay, Nolan-Sorden, N. L. et al., Anal. Biochem., 184:298-304 (1990), with similar results. Expression of clone ZB11, encoding amino acid residues 1 to 342, results in a loss of only about 26% of the 2-5A binding activity as compared to clone ZB1 (amino acids 1 to 656). Clones intermediate in length between ZB1 and ZB11 all result in significant levels of 2-5A binding activity. […] See also Saraste, M. et al., TIBS, 14:430-434 (1990).
The set of nested 3'-deletions of the truncated murine 2-5A-dependent RNase cDNA, ZB1, is generated with exonuclease III/S1 nuclease digestion followed by filling-in with Klenow DNA Polymerase using the "Erase-A-Base"system (Promega).
The synthesis of the 2-5A probe, p(A2'p)2 (br^8 A2'p)2 A[32P]Cp, and its crosslinking to 2-5A-dependent RNase is performed exactly as described. See Nolan-Sorden, N. L. et al., Anal. Biochem., 184:298-304 (1990). […]

Molecule: [Ca+2] [calcium]
- effect on 2-5A-dependent RNase activity [1]: no effect; also recorded: did not enhance ribonuclease activity
- effect on 2-5A-binding activity [2]: enhanced

Molecule: [Mg+2] [magnesium]
- effect on 2-5A-dependent RNase activity [1]: greatly stimulated
- effect on 2-5A-binding activity [2]: greatly stimulated

Molecule: [Mn+2] [manganese]
- effect on 2-5A-dependent RNase activity [1]: greatly stimulated
- effect on 2-5A-binding activity [2]: greatly stimulated

Molecule: [Zn+2] [zinc]
- effect on 2-5A-dependent RNase activity [1]: inhibitory
- effect on 2-5A-binding activity [2]: enhanced

Molecule: (A2'p)2 A
- fold higher concentration than trimer 2-5A required to prevent probe binding ([3]; both proteins): 500 fold
- competition with binding of the 2-5A probe [3]: fails to interfere
- concentration of competitor that prevents 2-5A probe binding [3]: 10 µM
- competition with binding of the 2-5A probe [4]: not prevented
- fold reduced activity as activator relative to 2-5A (5'-triphosphorylated trimer) [5]: more than 100 fold

Molecule: A(2'p5'A)3
- activation of 2-5A-dependent RNase (in words) [5]: enhanced activity

Molecule: A(2'p5'A)4
- activation of 2-5A-dependent RNase (in words) [5]: enhanced activity

Molecule: p3 (A2'p)2 A
- competition with binding of the 2-5A probe [3]: completely prevents probe binding
- concentration of competitor that prevents 2-5A probe binding [3]: about 20 nM
- competition with binding of the 2-5A probe [4]: effectively competes
- concentration giving maximal activation of 2-5A-dependent RNase [5]: 1 nM
- RNA (poly(rU)) degraded [6]: 93%

Molecule: p3 I2'pA2'pA
- concentration of competitor that prevents 2-5A probe binding [3]: about 1.0 μM
- activation of 2-5A-dependent RNase (in words) [5]: more than ten-fold less effective
- fold reduced activity as activator relative to 2-5A (5'-triphosphorylated trimer) [5]: 10 fold

Molecule: pA(2'p5'A)3
- concentration giving maximal activation of 2-5A-dependent RNase [5]: 1 nM

Molecule: pppA(2'p5'A)3
- concentration giving maximal activation of 2-5A-dependent RNase [5]: 1 nM

B1: clone ZB13: murine 2-5A-dependent RNase deletion, amino acids 1 to 294 (protein, UniProt Q05921 1-294, looked up, fragment)
chain: METPDYNTPQGGTPSAGSQRTVVEDDSSLIKAVQKGDVVRVQQLLEKGADANACEDTWGWTPLHNAVQAGRVDIVNLLLSHGADPHRRKKNGATPFIIAGIQGDVKLLEILLSCGADVNECDENGFTAFMEAAERGNAEALRFLFAKGANVNLRRQTTKDKRRLKQGGATALMSAAEKGHLEVLRILLNDMKAEVDARDNMGRNALIRTLLNWDCENVEEITSILIQHGADVNVRGERGKTPLIAAVERKHTGLVQMLLSREGINIDARDNEGKTALLIAVDKQLKEIVQLLLE
- 2-5A binding activity, % of the activity of clone ZB1 [7]: about 38.3%

B2: clone ZB11: murine 2-5A-dependent RNase deletion, amino acid residues 1 to 342 (protein, UniProt Q05921 1-342, looked up, fragment)
chain: METPDYNTPQGGTPSAGSQRTVVEDDSSLIKAVQKGDVVRVQQLLEKGADANACEDTWGWTPLHNAVQAGRVDIVNLLLSHGADPHRRKKNGATPFIIAGIQGDVKLLEILLSCGADVNECDENGFTAFMEAAERGNAEALRFLFAKGANVNLRRQTTKDKRRLKQGGATALMSAAEKGHLEVLRILLNDMKAEVDARDNMGRNALIRTLLNWDCENVEEITSILIQHGADVNVRGERGKTPLIAAVERKHTGLVQMLLSREGINIDARDNEGKTALLIAVDKQLKEIVQLLLEKGADKCDDLVWIARRNHDYHLVKLLLPYVANPDTDPPAGDWSPHSSRW
- loss of 2-5A binding activity as compared to clone ZB1 [7]: about 26%

B3: clone ZB15: murine 2-5A-dependent RNase deletion, amino acids 1 to 218, both P-loop motifs deleted (protein, UniProt Q05921 1-218, looked up, fragment)
chain: METPDYNTPQGGTPSAGSQRTVVEDDSSLIKAVQKGDVVRVQQLLEKGADANACEDTWGWTPLHNAVQAGRVDIVNLLLSHGADPHRRKKNGATPFIIAGIQGDVKLLEILLSCGADVNECDENGFTAFMEAAERGNAEALRFLFAKGANVNLRRQTTKDKRRLKQGGATALMSAAEKGHLEVLRILLNDMKAEVDARDNMGRNALIRTLLNWDCENV
- 2-5A binding activity, % of the activity of clone ZB1 [7]: completely lacking

Source: patent US5877019A, “Animal 2-5A-dependent RNases and encoding sequences therefor” (Cleveland Clinic Foundation, priority 1996, dated 1999)
